These results are taken from article PMC3605511, “Tumor P-Glycoprotein Correlates with Efficacy of PF-3758309 in in vitro and in vivo Models of Colorectal Cancer” (Frontiers in Pharmacology, 2013).

The structures appear in SMILES notation. Like-named read-outs stand apart in the source and are kept apart here.

What all share (assay type): cell-based
One assay concerns SW1116. The assay can be described thus: Cell proliferation assay, SW1116. Conditions: Homo sapiens, SW 1116; SW1116, 72 h, SRB assay. Here is the method: (§1) Cytotoxic/proliferation effects were determined using the sulforhodamine B (SRB) assay (Skehan et al., [1990]) or by resazurin. Briefly, cells in logarithmic growth phase were transferred to 96 well flat bottom plates with lids. One-hundred microliter cell suspensions containing 1500–5000 viable cells were plated into each well and incubated overnight prior to exposure with increasing concentrations of PF-309 for 3–5 days, dependent upon cell type. Media was removed and cells were fixed with cold 10% trichloroacetic acid for 30 min at 4°C. Cells were then washed with water and stained with 0.4% SRB (Fisher Sci., Pittsburgh, PA, USA) for 30 min at room temperature, washed again with 1% acetic acid, followed by stain solubilization with 10 mM tris at room temperature. The plate was then read on a plate reader (Biotek Synergy 2, Winooski, VT, USA) set at an absorbance wavelength of 565 nm. Cell proliferation curves were derived from the raw absorbance (OD) data.
(§2) Since PF-309 appeared to be a strong P-gp and BCRP substrates, we sought to evaluate if the transporters influenced sensitivity in vitro. We evaluated the sensitivity of CRC cell lines to PF-309 treatment in a panel of 27 lines. Cells were exposed to PF-309 at a range of concentrations for 72 h and cell content measured by SRB assay (see Pitts et al., [2013]). […]
Background: In SRB staining, fixed cells bind dye roughly in proportion to their protein.

A further assay deals with Caco-2. The experiment in a line: Cell proliferation assay, Caco-2. Particulars: Homo sapiens. Here is the method:
as §1, §2

The subject of another assay is T84. The assay can be described thus: Cell proliferation assay, T84. Particulars: Homo sapiens; T84, PF-309 alone, 72 h; 1 uM was the maximum concentration used. Here is the method:
as §1, §2

Another assay relates to HT29. The experiment in a line: Cell proliferation assay, HT29. Particulars: Homo sapiens, HT-29; HT29, 72 h, SRB assay. As to the method: as §1, §2
Another assay deals with SW480. The experiment in a line: Cell proliferation assay, SW480. Particulars: Homo sapiens; SW480, 72 h, SRB assay. As to the method:
as §1, §2

What is called IC50 is the concentration that gives 50% inhibition. Turning to `Cc1nc(Nc2n[nH]c3c2CN(C(=O)N[C@H](CN(C)C)c2ccccc2)C3(C)C)c2sccc2n1` [PF-309], the IC50 in the assay with SW1116 is greater than 1000 nM; in the assay with Caco-2 (Caco-2, CACO2, 72 h, SRB assay, read-out: IC50) it was greater than 1000 nM; in the assay on Caco-2 (Caco-2, PF-309 alone, 72 h, read-out: PF-309 IC50) it was 300 nM; in the assay with T84 it was greater than 1000 nM; in the assay on HT29, greater than 1000 nM; in the assay on SW480, 10.1 ± 2.5 nM.
